Results reported in ChEMBL document CHEMBL1201862, “PubChem BioAssay data set” (2004).
Active and inactive are the calls of the source.

Tests used:
[1] = biological target: T1, Dual specificity protein phosphatase 3 (Homo sapiens, UniProt P51452); assay: VHR1 phosphatase inhibitors, primary screen, biochemical, absorbance, uHTS (AID 1654)
[2] = biological target: Serine/threonine-protein phosphatase PP1-alpha catalytic subunit (Homo sapiens, UniProt P62136); assay: inhibition of protein phosphatase 1 activity – biochemical, fluorescence, dose response (AID 2403);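 note: phosphatase turnover of OMFP into fluorescent 3-O-methylfluorescein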
[3] = biological target: T2, Voltage-gated N-type calcium channel alpha-1B subunit/Amyloid beta A4 precursor protein-binding family A member 1 (Homo sapiens, UniProt Q00975+Q02410); format: protein assay
[4] = biological target: T2, Voltage-gated N-type calcium channel alpha-1B subunit/Amyloid beta A4 precursor protein-binding family A member 1; format: protein assay; remark: listed apart in the source
[5] = biological target: Serine/threonine-protein phosphatase (Homo sapiens, UniProt Q9BPW0); assay: Counterscreen for inhibitors of PP1: fluorescence-based biochemical high throughput dose response assay to identify inhibitors of Protein Phosphatase 5 (PP5). [Related pubchem assays: 2034 (Summary (PP5 inhibitors)), 1987 (PP5 inhibitors in singlate), 2235 (PP1 inhibitors in singlate)]
[6] = biological target: T1, Dual specificity protein phosphatase 3; assay: VHR1 phosphatase inhibitors, biochemical (AID 1878)
[7] = biological target: T3, Dual specificity protein phosphatase 6 (Rattus norvegicus, UniProt Q64346); assay: inhibition of rat DUSP6 enzyme activity – biochemical, in vitro, primary screen (AID 425)
T3 sequence (Q64346 whole entry): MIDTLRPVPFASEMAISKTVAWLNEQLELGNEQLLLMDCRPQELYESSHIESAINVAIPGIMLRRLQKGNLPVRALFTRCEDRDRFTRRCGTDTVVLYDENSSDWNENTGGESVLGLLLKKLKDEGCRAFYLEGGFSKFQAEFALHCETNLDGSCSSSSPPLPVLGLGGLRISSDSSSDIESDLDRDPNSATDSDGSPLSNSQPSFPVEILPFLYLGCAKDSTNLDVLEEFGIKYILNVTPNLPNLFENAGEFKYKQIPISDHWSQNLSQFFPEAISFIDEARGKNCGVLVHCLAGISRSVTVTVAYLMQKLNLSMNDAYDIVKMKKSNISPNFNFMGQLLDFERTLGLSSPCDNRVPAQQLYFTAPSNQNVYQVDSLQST

[8] = biological target: Tyrosine-protein phosphatase non-receptor type 12 (Homo sapiens, UniProt Q05209); assay: SAR Selectivity Analysis of small molecule inhibitors of PEST using pCAP in a fluorescence assay. [Related pubchem assays (depositor defined):AID1779, AID1784, AID2135]; format: functional
[9] = biological target: T1, Dual specificity protein phosphatase 3; assay: SAR VHR1 absorbance Assay for In Vitro dose response studies. [Related pubchem assays (depositor defined):AID1654, AID1661, AID1878, AID1992, AID2004]
[10] = biological target: T1, Dual specificity protein phosphatase 3; assay: SAR VHR1 Fluorescent Assay for In Vitro dose response studies. [Related pubchem assays (depositor defined):AID1654, AID1661, AID1878, AID1992, AID2004, AID2070, AID2085]; format: functional
[11] = biological target: T4, Tyrosine-protein phosphatase non-receptor type 22 (Homo sapiens, UniProt Q9Y2R2); assay: SAR LYP1 Fluorescent Assay using OMFP substrate for In Vitro dose response studies - Set 3. [Related pubchem assays (depositor defined):AID1779, AID1784, AID2140, AID2686]; format: functional
T4 sequence (Q9Y2R2 whole entry): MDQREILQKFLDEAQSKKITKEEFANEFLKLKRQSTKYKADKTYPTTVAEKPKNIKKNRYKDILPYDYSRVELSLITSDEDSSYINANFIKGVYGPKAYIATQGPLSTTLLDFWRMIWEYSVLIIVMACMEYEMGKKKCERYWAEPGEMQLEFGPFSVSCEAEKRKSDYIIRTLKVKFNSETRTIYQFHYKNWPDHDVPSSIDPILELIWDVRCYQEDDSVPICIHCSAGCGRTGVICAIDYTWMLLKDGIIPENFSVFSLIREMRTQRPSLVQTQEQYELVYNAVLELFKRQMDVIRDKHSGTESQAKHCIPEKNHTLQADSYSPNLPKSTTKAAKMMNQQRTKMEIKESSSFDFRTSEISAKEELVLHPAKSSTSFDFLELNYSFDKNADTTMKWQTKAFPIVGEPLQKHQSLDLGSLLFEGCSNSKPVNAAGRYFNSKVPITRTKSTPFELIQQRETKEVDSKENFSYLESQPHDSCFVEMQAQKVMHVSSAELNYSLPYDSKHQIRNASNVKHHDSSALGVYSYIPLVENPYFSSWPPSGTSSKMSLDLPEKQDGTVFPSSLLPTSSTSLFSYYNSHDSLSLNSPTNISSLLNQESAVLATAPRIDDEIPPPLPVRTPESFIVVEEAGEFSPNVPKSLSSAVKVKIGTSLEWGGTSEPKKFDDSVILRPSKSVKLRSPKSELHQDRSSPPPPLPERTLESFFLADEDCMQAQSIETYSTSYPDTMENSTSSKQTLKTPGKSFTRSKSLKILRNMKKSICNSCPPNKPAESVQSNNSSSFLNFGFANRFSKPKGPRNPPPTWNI

[12] = biological target: T5, Tyrosine-protein phosphatase non-receptor type 7 (Homo sapiens, UniProt P35236); assay: redox-active compounds inhibiting HePTP phosphatase – biochemical, fluorescence, mechanism study (AID 2068); format: functional
T5 sequence (P35236 whole entry): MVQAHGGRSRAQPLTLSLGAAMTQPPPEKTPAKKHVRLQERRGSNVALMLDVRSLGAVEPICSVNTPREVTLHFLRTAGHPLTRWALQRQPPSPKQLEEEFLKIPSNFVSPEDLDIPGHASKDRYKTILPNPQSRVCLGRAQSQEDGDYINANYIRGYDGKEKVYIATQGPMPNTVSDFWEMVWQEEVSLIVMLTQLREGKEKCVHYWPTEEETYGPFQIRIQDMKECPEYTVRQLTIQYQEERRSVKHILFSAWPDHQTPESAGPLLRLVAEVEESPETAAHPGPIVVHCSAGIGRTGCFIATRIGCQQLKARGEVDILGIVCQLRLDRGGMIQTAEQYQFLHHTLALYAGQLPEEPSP

[13] = biological target: T4, Tyrosine-protein phosphatase non-receptor type 22; assay: inhibition of lymphoid tyrosine phosphatase LYP – biochemical, pCAP fluorogenic substrate, fluorescence, set 3, SAR follow-up (AID 449727); format: functional
[14] = biological target: T3, Dual specificity protein phosphatase 6; format: functional
[15] = biological target: T6, Long-chain-fatty-acid--AMP ligase FadD28 (Mycobacterium tuberculosis, UniProt P9WQ59); assay: Fluorescence polarization aasay to screen for inhibitors that compete for the binding of FadD28 to a bisubstrate Measured in Biochemical System Using Plate Reader - 2147-01_Inhibitor_Dose_CherryPick_Activity.; format: functional, Mycobacterium tuberculosis H37Rv
T6 sequence (P9WQ59 whole entry): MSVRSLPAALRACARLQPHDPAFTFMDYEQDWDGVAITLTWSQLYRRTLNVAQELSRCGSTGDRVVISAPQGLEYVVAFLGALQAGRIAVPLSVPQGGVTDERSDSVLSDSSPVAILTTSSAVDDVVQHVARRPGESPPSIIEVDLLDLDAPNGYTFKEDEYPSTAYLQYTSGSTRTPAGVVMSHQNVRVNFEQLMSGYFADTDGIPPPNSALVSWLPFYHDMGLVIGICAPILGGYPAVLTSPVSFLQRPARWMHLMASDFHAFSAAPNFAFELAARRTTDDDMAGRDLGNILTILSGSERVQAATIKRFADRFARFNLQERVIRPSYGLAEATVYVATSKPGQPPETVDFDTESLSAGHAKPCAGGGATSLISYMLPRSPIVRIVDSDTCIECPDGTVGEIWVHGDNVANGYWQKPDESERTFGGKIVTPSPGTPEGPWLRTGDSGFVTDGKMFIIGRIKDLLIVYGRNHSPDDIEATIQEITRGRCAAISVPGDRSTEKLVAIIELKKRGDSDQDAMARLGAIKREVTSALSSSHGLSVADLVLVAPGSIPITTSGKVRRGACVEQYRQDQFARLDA

Trypsin = Trypsin (Sus scrofa, UniProt P00761); assay: trypsin protease activity blockade – biochemical, quenched peptide fluorescence, cherry-pick, selectivity assay for Rce1 protease inhibitor project, dose response (AID 488789)
CAAX prenyl protease 2 = CAAX prenyl protease 2 (Saccharomyces cerevisiae S288c, UniProt Q03530); format: biochemical
[16] = luciferase reporter signal suppression in cells – H4 neuroglioma cells, luminescence, dose response (AID 1990); format: functional, cell-based
[17] = luciferase reporter signal reduction – luminescence, H4-C neuroglioblastoma cells, dose response (AID 2458); format: functional, cell-based;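 note: H4 neuroglioblastoma cells stably carrying a luciferase reporter gene fusion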
BJ [18] = assay: BJ-TERT fibroblast viability loss – cell-based, RAS-independent, luminescence, dose response (AID 1933); format: functional; conditions: Homo sapiens
cells = format: functional, cell-based
[19] = Luminescence Cell-Based Dose Response HTS to Identify Inhibitors of 5'UTR Stem-Loop Driven Prion Protein mRNA Translation in H4 Neuroglioblastoma Cells. [Related pubchem assays: 1827 (Project Summary), 1813 (Primary HTS)]; format: functional
[20] = alpha-synuclein stem-loop luciferase translation blockers – H4 neuroglioma cells, luminescence, confirmation (AID 1988); format: functional, cell-based
BJ [21] = assay: cells; format: functional, cell-based; conditions: Homo sapiens
Prothrombin = Prothrombin (Homo sapiens, UniProt P00734); assay: Thrombin 1536 HTS Dose Response Confirmation. [Related pubchem assays: 1046 (Thrombin 1536 HTS; hits were confirmed in this assay)]; format: functional
J774.A1 = assay: Confirmation of image-based Screening Assay for Inhibitors of Phagocytosis. [Related pubchem assays (depositor defined):AID1029, AID1643]; format: functional, cell-based; conditions: Mus musculus
BJ [22] = assay: BJ-TERT-LT-ST fibroblast viability loss – cell-based, RAS-independent, luminescence, dose response (AID 1935); format: functional; conditions: Homo sapiens;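 note: BJ fibroblasts immortalized with TERT plus LT and ST oncogenes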
[23] = DRD fibroblast viability loss – cell-based, non-viral oncogenic, luminescence, dose response (AID 1934); format: functional; conditions: Homo sapiens
[24] = alpha-synuclein stem-loop translation blockers – luminescence, H4 neuroglioblastoma cells, dose confirmation, confirmation (AID 2454); format: functional, cell-based;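 note: H4 neuroglioblastoma cells carrying an alpha-synuclein 5'UTR luciferase reporter; potency for inhibition of the luciferase signal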
Protein Rev = Protein Rev (Human immunodeficiency virus type 1 group M subtype B (isolate HXB2)(HIV-1), UniProt P04618); assay: blockers of HIV Rev/RRE RNA complex – biochemical, fluorescence polarization, HIV-1, dose response (AID 434976); set-up: species or system Human immunodeficiency virus 1
[25] = biological target: Female germline-specific tumor suppressor gld-1 (Caenorhabditis elegans, UniProt Q17339); assay: blockers of GLD-1/TGE RNA complex formation – biochemical, fluorescence polarization, C. elegans, dose response (AID 2802);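 note: fluorescence polarization of labeled TGE RNA bound by purified gld-1 protein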
[26] = biological target: T7, Polyadenylate-binding protein 1 (Homo sapiens, UniProt P11940); assay: MLLE binding blockers, Cy5 peptide tracer – biochemical, fluorescence polarization, Cy5-PAM2 peptide, secondary, miRNA deadenylation inhibitor project, dose response (AID 602260); format: functional; conditions: read-out: IC50_Mean
[27] = biological target: T7, Polyadenylate-binding protein 1; assay: MLLE domain peptide-binding blockers, IC50 – biochemical, fluorescence polarization, FITC-PAM2 peptide, dose response (AID 602259); format: functional; conditions: read-out: IC50_Mean
Protein Tat = biological target: T8, Protein Tat (Human immunodeficiency virus type 1 group M subtype B (isolate HXB2)(HIV-1), UniProt P04608); format: functional;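 note: tat binding to TAR RNA read out by fluorescence polarization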
T8 sequence (P04608 whole entry): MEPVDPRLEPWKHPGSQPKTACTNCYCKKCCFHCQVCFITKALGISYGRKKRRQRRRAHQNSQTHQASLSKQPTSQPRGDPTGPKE

[28] = viability loss in THP-1 monocytes – THP-1 cells, cytotoxicity control for Vif-APOBEC3G degradation inhibitor project, dose response (AID 1117359); format: functional; conditions: THP-1

T1 sequence (P51452 whole entry): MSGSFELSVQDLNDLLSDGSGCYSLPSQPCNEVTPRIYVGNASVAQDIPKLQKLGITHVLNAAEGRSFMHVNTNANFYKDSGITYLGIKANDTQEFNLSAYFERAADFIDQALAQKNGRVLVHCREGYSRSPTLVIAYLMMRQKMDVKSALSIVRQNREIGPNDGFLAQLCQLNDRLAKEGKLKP
T7 sequence (P11940 whole entry, the tested form may be a part): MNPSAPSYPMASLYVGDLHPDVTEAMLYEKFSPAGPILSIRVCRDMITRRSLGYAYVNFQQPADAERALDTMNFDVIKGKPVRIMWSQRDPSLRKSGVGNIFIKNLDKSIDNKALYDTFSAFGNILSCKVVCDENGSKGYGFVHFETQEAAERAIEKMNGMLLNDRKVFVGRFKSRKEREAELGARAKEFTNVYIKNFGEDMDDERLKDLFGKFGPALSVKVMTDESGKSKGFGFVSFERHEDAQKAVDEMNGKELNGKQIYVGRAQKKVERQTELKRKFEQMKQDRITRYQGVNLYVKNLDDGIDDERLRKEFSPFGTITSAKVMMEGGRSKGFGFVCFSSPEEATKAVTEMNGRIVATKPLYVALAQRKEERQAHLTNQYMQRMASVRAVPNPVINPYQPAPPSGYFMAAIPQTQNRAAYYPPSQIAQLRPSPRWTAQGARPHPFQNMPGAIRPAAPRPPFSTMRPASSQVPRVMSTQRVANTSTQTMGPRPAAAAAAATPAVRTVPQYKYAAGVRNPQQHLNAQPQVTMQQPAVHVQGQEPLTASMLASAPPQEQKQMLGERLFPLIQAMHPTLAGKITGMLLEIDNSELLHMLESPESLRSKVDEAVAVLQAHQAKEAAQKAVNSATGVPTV
T2 sequence (Q00975 whole entry): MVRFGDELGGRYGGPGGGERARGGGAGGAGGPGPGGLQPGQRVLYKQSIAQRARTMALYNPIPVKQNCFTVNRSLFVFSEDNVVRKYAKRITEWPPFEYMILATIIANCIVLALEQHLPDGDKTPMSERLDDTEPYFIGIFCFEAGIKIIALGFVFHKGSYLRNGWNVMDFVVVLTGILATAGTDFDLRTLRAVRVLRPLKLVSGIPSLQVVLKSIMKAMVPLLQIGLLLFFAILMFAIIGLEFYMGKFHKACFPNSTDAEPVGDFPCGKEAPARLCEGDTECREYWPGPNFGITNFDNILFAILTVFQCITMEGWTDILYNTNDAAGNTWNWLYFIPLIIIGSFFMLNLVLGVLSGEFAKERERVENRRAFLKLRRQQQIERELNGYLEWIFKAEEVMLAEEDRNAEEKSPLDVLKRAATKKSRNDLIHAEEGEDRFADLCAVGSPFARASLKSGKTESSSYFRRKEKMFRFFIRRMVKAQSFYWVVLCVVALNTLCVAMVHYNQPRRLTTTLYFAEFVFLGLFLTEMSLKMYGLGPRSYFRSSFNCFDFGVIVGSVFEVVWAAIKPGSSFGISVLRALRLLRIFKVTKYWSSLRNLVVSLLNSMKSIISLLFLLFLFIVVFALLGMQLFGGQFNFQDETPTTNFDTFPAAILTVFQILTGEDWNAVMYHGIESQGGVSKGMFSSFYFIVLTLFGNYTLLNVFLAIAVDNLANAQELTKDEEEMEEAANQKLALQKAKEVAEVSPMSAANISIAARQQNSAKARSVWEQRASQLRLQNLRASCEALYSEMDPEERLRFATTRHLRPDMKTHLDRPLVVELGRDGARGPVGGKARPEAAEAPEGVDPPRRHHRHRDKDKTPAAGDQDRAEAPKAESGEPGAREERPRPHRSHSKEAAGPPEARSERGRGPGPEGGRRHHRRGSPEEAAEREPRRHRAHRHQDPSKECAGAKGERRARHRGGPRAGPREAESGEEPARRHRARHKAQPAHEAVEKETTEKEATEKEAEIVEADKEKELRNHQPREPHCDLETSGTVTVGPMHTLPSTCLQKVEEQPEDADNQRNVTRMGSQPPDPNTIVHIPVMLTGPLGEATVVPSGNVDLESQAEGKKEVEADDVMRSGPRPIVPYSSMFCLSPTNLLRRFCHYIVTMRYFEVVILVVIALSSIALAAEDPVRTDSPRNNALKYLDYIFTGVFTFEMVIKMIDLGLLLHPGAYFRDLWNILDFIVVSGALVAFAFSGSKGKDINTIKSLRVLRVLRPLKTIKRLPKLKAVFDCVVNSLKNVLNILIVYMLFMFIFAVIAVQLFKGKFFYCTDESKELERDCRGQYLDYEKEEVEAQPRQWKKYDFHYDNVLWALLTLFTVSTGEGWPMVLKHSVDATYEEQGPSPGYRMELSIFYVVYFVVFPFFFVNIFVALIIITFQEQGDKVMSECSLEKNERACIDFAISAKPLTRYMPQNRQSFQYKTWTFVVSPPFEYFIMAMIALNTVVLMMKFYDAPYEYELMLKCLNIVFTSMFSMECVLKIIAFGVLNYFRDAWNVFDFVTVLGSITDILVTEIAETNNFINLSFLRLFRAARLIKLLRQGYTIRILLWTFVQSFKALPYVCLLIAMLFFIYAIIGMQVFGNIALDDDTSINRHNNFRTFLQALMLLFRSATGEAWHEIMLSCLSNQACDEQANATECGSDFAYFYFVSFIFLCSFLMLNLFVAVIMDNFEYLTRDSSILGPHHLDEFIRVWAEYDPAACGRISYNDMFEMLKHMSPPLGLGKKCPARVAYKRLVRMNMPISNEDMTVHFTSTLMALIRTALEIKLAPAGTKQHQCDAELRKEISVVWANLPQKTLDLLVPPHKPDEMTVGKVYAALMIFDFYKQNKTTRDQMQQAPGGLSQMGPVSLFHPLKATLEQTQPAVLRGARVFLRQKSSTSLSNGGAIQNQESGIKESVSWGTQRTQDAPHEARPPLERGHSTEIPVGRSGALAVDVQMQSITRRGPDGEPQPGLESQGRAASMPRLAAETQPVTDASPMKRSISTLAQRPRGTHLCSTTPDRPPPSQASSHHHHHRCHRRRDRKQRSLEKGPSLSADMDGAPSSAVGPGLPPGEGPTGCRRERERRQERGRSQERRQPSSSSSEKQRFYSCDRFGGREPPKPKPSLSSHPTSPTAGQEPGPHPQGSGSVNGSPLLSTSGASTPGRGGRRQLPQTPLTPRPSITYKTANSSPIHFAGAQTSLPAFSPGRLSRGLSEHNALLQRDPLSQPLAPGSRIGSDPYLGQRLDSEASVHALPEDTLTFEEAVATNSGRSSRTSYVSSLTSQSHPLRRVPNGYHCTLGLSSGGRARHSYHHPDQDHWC
T2 sequence (Q02410 whole entry): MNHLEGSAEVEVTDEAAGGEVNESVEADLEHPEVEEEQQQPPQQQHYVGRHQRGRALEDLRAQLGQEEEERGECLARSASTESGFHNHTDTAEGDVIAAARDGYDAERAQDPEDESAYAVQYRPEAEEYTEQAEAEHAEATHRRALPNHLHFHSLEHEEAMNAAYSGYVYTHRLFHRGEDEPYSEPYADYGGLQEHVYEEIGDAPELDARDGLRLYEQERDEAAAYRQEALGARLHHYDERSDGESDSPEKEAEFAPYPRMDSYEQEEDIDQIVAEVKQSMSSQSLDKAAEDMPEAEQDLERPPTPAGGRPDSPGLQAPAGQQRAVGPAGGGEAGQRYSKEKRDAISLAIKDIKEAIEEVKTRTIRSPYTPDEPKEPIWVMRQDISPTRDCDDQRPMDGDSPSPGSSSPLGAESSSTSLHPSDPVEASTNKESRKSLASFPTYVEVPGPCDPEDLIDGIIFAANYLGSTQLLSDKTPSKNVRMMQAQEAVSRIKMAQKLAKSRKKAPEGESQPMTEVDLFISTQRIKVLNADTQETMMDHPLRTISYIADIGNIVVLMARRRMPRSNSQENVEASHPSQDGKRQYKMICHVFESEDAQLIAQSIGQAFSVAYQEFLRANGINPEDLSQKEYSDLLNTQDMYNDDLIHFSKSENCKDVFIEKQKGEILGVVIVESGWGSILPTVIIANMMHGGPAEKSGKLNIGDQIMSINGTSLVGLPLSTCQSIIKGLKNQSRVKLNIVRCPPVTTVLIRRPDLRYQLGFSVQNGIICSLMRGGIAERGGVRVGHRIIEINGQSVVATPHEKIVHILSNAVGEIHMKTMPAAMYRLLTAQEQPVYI
Sequence of CAAX prenyl protease 2 (Q03530 whole entry): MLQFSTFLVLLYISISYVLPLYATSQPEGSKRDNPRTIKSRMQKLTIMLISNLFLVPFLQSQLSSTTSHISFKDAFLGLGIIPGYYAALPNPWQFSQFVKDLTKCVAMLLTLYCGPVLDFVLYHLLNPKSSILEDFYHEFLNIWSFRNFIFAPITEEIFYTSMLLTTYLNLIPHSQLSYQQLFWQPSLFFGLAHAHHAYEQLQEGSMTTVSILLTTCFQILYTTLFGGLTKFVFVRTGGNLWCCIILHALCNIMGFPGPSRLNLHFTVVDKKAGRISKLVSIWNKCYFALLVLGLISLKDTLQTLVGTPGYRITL
Sequence of Protein Rev (P04618 whole entry): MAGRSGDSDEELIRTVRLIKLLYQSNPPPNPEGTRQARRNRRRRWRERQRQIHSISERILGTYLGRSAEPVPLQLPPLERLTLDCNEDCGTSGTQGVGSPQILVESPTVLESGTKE
Sequence of Female germline-specific tumor suppressor gld-1 (Q17339 whole entry): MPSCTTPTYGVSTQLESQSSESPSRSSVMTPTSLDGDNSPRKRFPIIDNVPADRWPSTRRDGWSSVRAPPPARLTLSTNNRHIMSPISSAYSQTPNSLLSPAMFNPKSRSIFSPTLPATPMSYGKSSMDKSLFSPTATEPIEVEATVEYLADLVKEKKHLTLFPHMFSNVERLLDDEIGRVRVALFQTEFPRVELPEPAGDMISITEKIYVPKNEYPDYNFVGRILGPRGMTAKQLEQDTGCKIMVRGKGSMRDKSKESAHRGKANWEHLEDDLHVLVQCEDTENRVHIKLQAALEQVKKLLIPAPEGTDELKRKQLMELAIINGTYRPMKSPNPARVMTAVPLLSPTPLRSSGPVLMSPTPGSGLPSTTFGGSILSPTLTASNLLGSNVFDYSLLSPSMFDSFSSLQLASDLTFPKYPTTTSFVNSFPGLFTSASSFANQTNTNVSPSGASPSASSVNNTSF

Compound: COc1cc(/C=C2\SC(=O)N(CC(=O)Nc3ccc(C)cc3)C2=O)cc(Cl)c1OCC(=O)O
- IC50 [1]: 5.01 µM (active)
- IC50 [2]: 6.24 µM (active)
- IC50 [3]: 6.91 µM (active)
- IC50 [4]: > 50 µM (inactive)
- IC50 [5]: > 67 µM (not active)
- IC50 [6]: < 1.23 µM (inactive)
- IC50 [7]: 75.2 µM (active)
- IC50 [8]: 313 nM (active)
- IC50 [9]: 2.4 µM (active)
- IC50 [10]: 1.18 µM (active)
- IC50 [11]: 1.51 µM (active)
- IC50 [12]: 256 nM (active)
- IC50 [13]: 803 nM (active)
- IC50 [14]: 6.66 µM (active)
- AC50 [15]: > 100 µM (inactive)

Compound: N#Cc1nc(-c2ccco2)oc1N1CCN(C(c2ccccc2)c2ccccc2)CC1
- AC50 (Trypsin): 41.5 µM (active)
- AC50 (CAAX prenyl protease 2): 990 nM (active)

Compound: O=C(c1ccco1)N1CCN(C(=O)N2c3ccccc3Sc3ccccc32)CC1
- EC50 [16]: < 100 nM (active)
- EC50 [17]: 295 nM (active)
- EC50 (BJ [18]): 8.08 µM (inconclusive)
- EC50 (cells): 291 nM (active)
- EC50 [19]: 136 nM (active)
- EC50 [20]: < 100 nM (active)
- EC50 (BJ [21]): 13.2 µM (inconclusive)
- IC50 (Prothrombin): > 50 µM (not active)
- IC50 (J774.A1): < 50 nM (inactive)
- EC50 (BJ [22]): 1.41 µM (inconclusive)
- EC50 [23]: 6.59 µM (inconclusive)
- EC50 [24]: 381 nM (active)

Compound: Clc1ccc(/C=N/c2c(-c3ccco3)nc3ccccn23)cc1
- IC50 (Protein Rev): > 75.4 µM (not active)
- IC50 [25]: 2.59 µM (active)
- IC50 [26]: > 66 µM (inactive)
- IC50 [27]: 59.2 µM (inactive)
- IC50 (Protein Tat): 6.48 µM (inconclusive)
- CC50 [28]: > 40 µM (active)
